The values below come from PMC3113660 (Journal of medicinal chemistry, 2010).

By IC50 is commonly meant the concentration that inhibits the measured activity by half.

Like-named read-outs stand apart in the source and are kept apart here.

For data set [1], the system named is Trypanosoma brucei rhodesiense (STIB900). In words: In vitro growth inhibition assay of T. brucei rhodesiense. The class given is cell-based.
Data set [2] has as its system Plasmodium falciparum (K1, resistant to chloroquine). Put plainly: In vitro growth inhibition assay of P. falciparum. The class given is cell-based. The conditions noted are these: for IC50: Plasmodium falciparum, K1, read-out: antiplasmodial IC50, P. falciparum, in vitro.
The test system of data set [3] is T. brucei rhodesiense STIB900. The class given is in vivo, mice. The conditions noted are these: for toxicity in the in vivo model (mice died due to toxicity): infected mice; for cures: number of mice that survive and are parasite free for 60 days.
In data set [4] the test system is Leishmania donovani (MHOM/SD/62/1S-CL2D) axenic amastigotes. In words: Antileishmanial assay. The class given is cell-based. Particulars: Leishmania donovani, read-out: L. donovani IC50.
Where [5] appears, read: relative to bis(N-isopropyl)amidine 32.

For `COc1ccc(C(=N)N)cc1-n1cc(-c2cccc(C(=N)N)c2)nn1.Cl.Cl` [Compound 4, 1-(5-Amidino-2-methoxyphenyl)-4-(3-amidinophenyl)-1H-1,2,3-triazole Dihydrochloride], the “fold as active against T. brucei rhodesiense” value in data set [1] (relative to 2-O-demethylated analogue 10) is 1000 fold. Besides, the concentration for half-maximal inhibition (IC50) in data set [2] is < 58 nM.

In the case of `COc1ccc(C2=NCCN2)cc1-n1cc(-c2cccc(C3=NCCN3)c2)nn1.Cl.Cl` [Compound 6, 1-[5-(4,5-Dihydro-1H-imidazol-2-yl)-2-methoxyphenyl]-4-[3-(4,5-dihydro-1H-imidazol-2-yl)phenyl]-1H-1,2,3-triazole Dihydrochloride], the “fold as active against T. brucei rhodesiense” value in data set [1] (relative to 2-O-demethylated analogue 12) is listed as 13 fold. In data set [2], the IC50 was < 58 nM. For the same compound, the “fold more active against P. falciparum” value in data set [2] (relative to diimidazoline 3) is listed as 12 fold.

Turning to `COc1ccc(C(=N)N)cc1-c1cn(-c2cccc(C(=N)N)c2)nn1.Cl.Cl` [Compound 7, 4-(5-Amidino-2-methoxyphenyl)-1-(3-amidinophenyl)-1H-1,2,3-triazole Dihydrochloride], in data set [1] (relative to diamidine 1), the “fold less active against T. brucei rhodesiense” value stood at 20 fold. Besides, the IC50 in data set [2] was < 58 nM.

With `Cl.Cl.N=C(N)c1cccc(-c2cn(-c3cc(C(=N)N)ccc3O)nn2)c1` [Compound 10, 1-(5-Amidino-2-hydroxyphenyl)-4-(3-amidinophenyl)-1H-1,2,3-triazole Dihydrochloride], the “fold less active against T. brucei rhodesiense” value in data set [1] (relative to diamidine 1) amounted to 600 fold. The “fold less potent against P. falciparum” value in data set [2] (relative to 2-methoxy analogue 4) amounted to 320 fold; in data set [2] (relative to dication 1), 425 fold.

For `CC(C)NC(=N)c1ccc(-n2cc(-c3cccc(C(=N)NC(C)C)c3)nn2)cc1.Cl.Cl` [Compound 17, 1-(4-N-Isopropylamidinophenyl)-4-(3-N-isopropylamidinophenyl)-1H-1,2,3-triazole Dihydrochloride], the “fold less active against T. brucei rhodesiense” value in data set [1] (relative to diamidine 16) was found to be 67 fold. Further, the IC50 in data set [2] was < 58 nM.

For `COc1cc(C(=N)NC(C)C)ccc1-n1cc(-c2cccc(C(=N)NC(C)C)c2)nn1.Cl.Cl` [Compound 20, 1-(4-N-Isopropylamidino-2-methoxyphenyl)-4-(3-N-isopropylamidinophenyl)-1H-1,2,3-triazole Dihydrochloride], the “fold less active against T. brucei rhodesiense” value in data set [1] (relative to congener 19) was determined as 178 fold. Besides, the IC50 in data set [2] was < 58 nM.

Regarding `COc1ccc(C(=N)NC(C)C)cc1-c1cn(-c2ccc(C(=N)NC(C)C)cc2)nn1.Cl.Cl` [Compound 23, 4-(5-N-Isopropylamidino-2-methoxyphenyl)-1-(4-N-isopropylamidinophenyl)-1H-1,2,3-triazole Dihydrochloride], the IC50 in data set [2] is < 58 nM. Besides, the “toxicity in the in vivo model (mice died due to toxicity)” value in data set [3] (4 × 5 mg/kg ip, 5 mg/kg) was “toxic”.

Regarding `Cl.Cl.N=C(N)c1cccc(-c2cn(-c3ccc(C(=N)N)cc3O)nn2)c1` [Compound 25, 1-(4-Amidino-2-hydroxyphenyl)-4-(3-amidinophenyl)-1H-1,2,3-triazole Dihydrochloride], the “fold less active against T. brucei rhodesiense” value in data set [1] (relative to diamidine 16) was ~22 fold.

With `Cl.Cl.N=C(N)c1ccc(-c2cn(-c3cccc(C(=N)N)c3)nn2)cc1` [Compound 31, 1-(3-Amidinophenyl)-4-(4-amidinophenyl)-1H-1,2,3-triazole Dihydrochloride], the cures entry in data set [3] (4 × 5 mg/kg ip) was “curing one out of four mice”.

Regarding `CC(C)NC(=N)c1ccc(-c2cn(-c3cccc(C(=N)NC(C)C)c3)nn2)cc1.Cl.Cl` [Compound 32, 1-(3-N-Isopropylamidinophenyl)-4-(4-N-isopropylamidinophenyl)-1H-1,2,3-triazole Dihydrochloride], the “fold less active against T. brucei rhodesiense” value in data set [1] (relative to diamidine 31) is 77 fold. In addition, the IC50 in data set [2] was < 58 nM.

With `Cl.Cl.c1cc(C2=NCCN2)cc(-n2cc(-c3ccc(C4=NCCN4)cc3)nn2)c1` [Compound 33, 1-[3-(4,5-Dihydro-1H-imidazol-2-yl)phenyl]-4-[4-(4,5-dihydro-1H-imidazol-2-yl)phenyl]-1H-1,2,3-triazole Dihydrochloride], the “fold less active against T. brucei rhodesiense” value in data set [1] (relative to diamidine 31) is on record as 77 fold.

Take `COc1cc(C(=N)N)ccc1-c1cn(-c2cccc(C(=N)N)c2)nn1.Cl.Cl` [Compound 37, 4-(4-Amidino-2-methoxyphenyl)-1-(3-amidinophenyl)-1H-1,2,3-triazole Dihydrochloride]: the IC50 in data set [2] was < 58 nM. Besides, the cures entry in data set [3] (4 × 1 mg/kg ip) is recorded as “no cures”.

`COc1cc(C(=N)NC(C)C)ccc1-c1cn(-c2cccc(C(=N)NC(C)C)c2)nn1.Cl.Cl` [Compound 38, 4-(4-N-Isopropylamidino-2-methoxyphenyl)-1-(3-N-isopropylamidinophenyl)-1H-1,2,3-triazole Dihydrochloride]: in data set [1] (relative to diamidine 37), the “fold less active against T. brucei rhodesiense” value was determined as 141 fold. Also, the IC50 in data set [2] is < 58 nM.

With `COc1cc(C2=NCCN2)ccc1-c1cn(-c2cccc(C3=NCCN3)c2)nn1.Cl.Cl` [Compound 39, 4-[4-(4,5-Dihydro-1H-imidazol-2-yl)-2-methoxyphenyl]-1-[3-(4,5-dihydro-1H-imidazol-2-yl)phenyl]-1H-1,2,3-triazole Dihydrochloride], the “fold less active against T. brucei rhodesiense” value in data set [1] (relative to diamidine 37) turned out to be 804 fold.

As to `CC(C)NC(=N)c1ccc(-c2cn(-c3cc(C(=N)NC(C)C)ccc3O)nn2)cc1.Cl.Cl` [Compound 41, 1-(5-N-Isopropylamidino-2-hydroxyphenyl)-4-(4-N-isopropylamidinophenyl)-1H-1,2,3-triazole Dihydrochloride], the “fold less active against T. brucei rhodesiense” value in data set [1] (setting [5]) came out at 33 fold. In addition, in data set [2] (setting [5]), the “fold less active against P. falciparum” value was determined as 123 fold.

For the compound `Cl.Cl.Oc1ccc(C2=NCCN2)cc1-n1cc(-c2ccc(C3=NCCN3)cc2)nn1` [Compound 42, 1-[5-(4,5-Dihydro-1H-imidazol-2-yl)-2-hydroxyphenyl]-4-[4-(4,5-dihydro-1H-imidazol-2-yl)phenyl]-1H-1,2,3-triazole Dihydrochloride], the “fold less active against T. brucei rhodesiense” value in data set [1] (relative to diimidazoline 33) came to 43 fold.

Consider `Cl.Cl.N=C(N)c1cccc(-n2cc(-c3ccc(C(=N)N)cc3O)nn2)c1` [Compound 43, 4-(4-Amidino-2-hydroxyphenyl)-1-(3-amidinophenyl)-1H-1,2,3-triazole Dihydrochloride], for which the “SIT, selectivity index for T. brucei rhodesiense” value in data set [1] (ratio IC50 (L6)/IC50 (T. brucei rhodesiense)) is given as >26250. The IC50 in data set [2] is < 58 nM. In addition, the cures result in data set [3] (4 × 5 mg/kg ip) was “curing at least two out of four animals”.

With `CC(C)NC(=N)c1ccc(-c2cn(-c3ccc(C(=N)NC(C)C)cc3)nn2)cc1.Cl.Cl` [Compound 47, 1,4-Bis(4-N-isopropylamidinophenyl)-1H-1,2,3-triazole Dihydrochloride], the IC50 in data set [2] was < 58 nM. Further, the “toxicity in the in vivo model (mice died due to toxicity)” value in data set [3] (4 × 5 mg/kg ip) was “toxic”.

Regarding `COc1cc(C(=N)N)ccc1-c1cn(-c2ccc(C(=N)N)cc2)nn1.Cl.Cl` [Compound 52, 4-(4-Amidino-2-methoxyphenyl)-1-(4-amidinophenyl)-1H-1,2,3-triazole Dihydrochloride], in data set [3] (4 × 5 mg/kg ip), the cures result is on record as “curing at least two out of four animals”.

For `Cl.Cl.N=C(N)c1ccc(-c2cn(-c3ccc(C(=N)N)cc3O)nn2)cc1` [Compound 55, 1-(4-Amidino-2-hydroxyphenyl)-4-(4-amidinophenyl)-1H-1,2,3-triazole Dihydrochloride], the “fold less active against T. brucei rhodesiense” value in data set [1] (relative to dication 46) is given as 125 fold.

Regarding `N=C(N)c1ccc(OCCCCCOc2ccc(C(=N)N)cc2)cc1` [pentamidine, 1,5-bis(4-amidinophenoxy)pentane, reference compound], the concentration for half-maximal inhibition (IC50) in data set [4] stood at 1800 nM.
